According to PubChem BioAssay (NCI):
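Protocol summary: plate cells (96-well), add compound at 5 concentrations, incubate 48 h, interpolate endpoints linearly. At the GI50, growth is halved. At the TGI there is no net growth.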

Legend:
Test in all cases: NCI tumour cell line growth inhibition, 48 h
[1] = system: DU-145 prostate
[2] = system: HL-60(TB) leukemia
[3] = system: SNB-19 CNS
[4] = system: MDA-MB-468 breast
[5] = system: HS 578T breast
[6] = system: MDA-MB-231 breast
[7] = system: SW-620 colon
[8] = system: CCRF-CEM leukemia
[9] = system: NCI-H23 lung
[10] = system: PC-3 prostate
[11] = system: LOX IMVI melanoma
[12] = system: CAKI-1 renal
[13] = system: SF-539 CNS
[14] = system: A498 renal
[15] = system: OVCAR-8 ovarian
[16] = system: SK-MEL-2 melanoma
[17] = system: SF-268 CNS
[18] = system: HCT-15 colon
[19] = system: NCI-H460 lung
[20] = system: HOP-62 NSCLC
[21] = system: RPMI-8226 leukemia
[22] = system: NCI-H522 lung
[23] = system: SK-MEL-5 melanoma
[24] = system: SNB-75 CNS
[25] = system: SN12C renal
[26] = system: SK-MEL-28 melanoma
[27] = system: EKVX NSCLC
[28] = system: TK-10 renal
[29] = system: M14 melanoma

`N#CC1=C(c2cccs2)Nc2c(c(-c3ccccc3)nn2-c2ccccc2)C12C(=O)Nc1ccccc12` (stereo not drawn) showed a GI50 [1] of 20.3 µM, a TGI [1] of 46.6 µM and a GI50 [2] of 5.75 µM. It also gave a TGI [2] of 45.6 µM, a GI50 [3] of 9.25 µM and a TGI [3] of over 100 µM. For the same compound, the GI50 [4] was 11.4 µM, the TGI [4] was 32.4 µM and the GI50 [5] was 14.4 µM. For the same compound, the TGI [5] was 44.9 µM, the GI50 [6] was 16.4 µM and the TGI [6] was 33.8 µM. It also gave a GI50 [7] of 9.57 µM, a TGI [7] of 28.6 µM and a GI50 [8] of 7.52 µM. It also gave a TGI [8] of 46.8 µM, a GI50 [9] of 12.9 µM and a TGI [9] of 31.8 µM. It also gave a GI50 [10] of 8.38 µM, a TGI [10] of 24.2 µM and a GI50 [11] of 14.4 µM. It also gave a TGI [11] of 32.4 µM, a GI50 [12] of 15.7 µM and a TGI [12] of 35 µM. The GI50 [13] was 15.2 µM, the TGI [13] was 31.7 µM and the GI50 [14] was 17.8 µM. For the same compound, the TGI [14] was 35.3 µM, the GI50 [15] was 14.8 µM and the TGI [15] was 29.5 µM. It also gave a GI50 [16] of 15.8 µM, a TGI [16] of 38.3 µM and a GI50 [17] of 18.9 µM. It also gave a TGI [17] of over 100 µM, a GI50 [18] of 8.92 µM and a TGI [18] of 24 µM. It also gave a GI50 [19] of 11.3 µM, a TGI [19] of 24.1 µM and a GI50 [20] of 17 µM. It also gave a TGI [20] of 44.1 µM, a GI50 [21] of 8.6 µM and a TGI [21] of 83.7 µM. The GI50 [22] was 2.99 µM, the TGI [22] was 15.8 µM and the GI50 [23] was 13.7 µM. It also gave a TGI [23] of 29.4 µM, a GI50 [24] of 8.48 µM and a TGI [24] of 30.8 µM. The GI50 [25] was 19.6 µM, the TGI [25] was over 100 µM and the GI50 [26] was 14.9 µM. The TGI [26] was 29.3 µM, the GI50 [27] was 11.2 µM and the TGI [27] was 33.9 µM. It also gave a GI50 [28] of 13.6 µM, a TGI [28] of 31.1 µM and a GI50 [29] of 15 µM. For the same compound, the TGI [29] was 32.7 µM.
